# Test results reported in patent US10017509B2, “Macrocylic pyrimidine derivatives” (Janssen Pharmaceutica NV, priority 2014, dated 2018).
# Tests used:
# EF2K [1] = molecular target: T1, EF2K (Homo sapiens, UniProt O00418); assay: Biochemical EF2K lysate-based kinase assay (AlphaLISA p-eEF2 Thr56); conditions: pIC50 = -log IC50 (M), read-out: eEF2K_C_alphalisa pIC50 (converted)
# T1 construct: host or cells: LN-229 cell lysate
# T1 sequence (O00418 1-725): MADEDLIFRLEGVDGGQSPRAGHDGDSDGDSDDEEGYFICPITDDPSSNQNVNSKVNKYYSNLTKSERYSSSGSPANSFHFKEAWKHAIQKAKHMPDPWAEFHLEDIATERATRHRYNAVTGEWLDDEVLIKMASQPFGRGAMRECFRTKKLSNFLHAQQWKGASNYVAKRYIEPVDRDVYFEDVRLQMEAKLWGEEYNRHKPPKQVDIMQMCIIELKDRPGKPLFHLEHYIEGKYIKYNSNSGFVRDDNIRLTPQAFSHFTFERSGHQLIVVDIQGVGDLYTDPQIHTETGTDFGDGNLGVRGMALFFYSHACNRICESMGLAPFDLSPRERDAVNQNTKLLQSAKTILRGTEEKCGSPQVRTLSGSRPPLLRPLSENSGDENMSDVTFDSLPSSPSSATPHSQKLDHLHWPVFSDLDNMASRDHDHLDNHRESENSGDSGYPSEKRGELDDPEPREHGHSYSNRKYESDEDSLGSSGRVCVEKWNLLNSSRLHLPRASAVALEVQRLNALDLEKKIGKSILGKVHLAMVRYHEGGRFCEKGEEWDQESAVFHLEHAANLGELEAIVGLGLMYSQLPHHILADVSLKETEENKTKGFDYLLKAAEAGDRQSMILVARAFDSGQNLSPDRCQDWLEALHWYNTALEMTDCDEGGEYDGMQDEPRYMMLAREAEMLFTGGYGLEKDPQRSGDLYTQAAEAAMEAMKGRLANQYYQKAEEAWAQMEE
# Excerpt: Biochemical EF2K Lysate-Based Kinase Assay
# LN-229 cells were purchased from ATCC (CRL-2611); these are glioblastoma cells. Cell lysates from LN229 were used in this kinase assay to provide both the kinase and the substrate (EF2). The AlphaLISA p-eEF2 (Thr56) detection assay was developed using a sandwich assay format with two specific antibodies recognizing different epitopes of the target, including one antibody against the phosphorylation site of interest. One anti-eEF2 antibody was conjugated onto AlphaLISA Acceptor beads, while the second antibody was biotinylated and captured by streptavidin coated Donor beads.
# Compound was mixed with LN-229 cell lysates in the presence of a kinase buffer (e.g. HEPES) at a pH of 6.6, containing 10 mM Mg^2+ (e.g. magnesium acetate) and 10 mM adenosine-tri-phosphate (ATP) and incubated at room temperature for 15 minutes. The kinase reaction was stopped with excess ethylenediaminetetraacetic acid disodium salt and the biotinylated-anti phospho eEF2 antibody (3 nM) was added for 1 hour. Then the anti-EF2 acceptor beads (10 μg/ml) as well as the streptavidin coated donor beads (20 μg/ml) were added for 1 hour, and the AlphaLISA signal was measured in an Envision instrument once, left overnight, and measured again for the final read.
# (§1) (pIC50 is −log IC50 where IC50 represents the concentration expressed in M at which the test compound gives 50% inhibition)
# [2] = molecular target: Vps34 (PIK3C3 lipid kinase) (Homo sapiens, UniProt Q8NEB9); assay: Biochemical Vps34 lipid kinase assay (ADP-Glo); conditions: for IC50: serial half-log dilution 10 μM to 0.3 nM, pIC50 = -log IC50 (M); for remaining activity at 1 µM: 1 h, read-out: VPS34_1microM_% of cntrl
# Protocol: Biochemical Vps34 Lipid Kinase Assay
# A non-radiometric kinase assay (ADP-Glo™ Assay, Promega, Madison, Wi, USA) was used for measuring the kinase activity of the PIK3C3 lipid kinase. All kinase assays were performed in 96-well half-area microtiter plates in a 25 μl reaction volume. The reaction cocktail was pipetted in 3 steps in the following order: • 10 μl of ATP solution (in assay buffer, see below) • 5 μl of test sample in 5% DMSO 10 μl of enzyme/substrate mixture
# All lipid kinase assays contained 50 mM HEPES (4-(2-hydroxyethyl)-1-piperazineethanesulfonic acid)-NaOH, pH 7.5, 1 mM EGTA ((ethylene glycol tetraacetic acid), 100 mM NaCl, 0.03% CHAPS (3-[(3-Cholamidopropyl)dimethylammonio]-1-propanesulfonate), 2 mM DTT (Dithiothreitol), 20 μM ATP (corresponding to the apparent ATP-Km), kinase (7.6 nM) and substrate (50 μM). The assay for PIK3C3 additionally contained 3 mM MnCl2.
# The reaction cocktails were incubated at 30° C. for 60 minutes. The reaction was stopped with 25 μl ADP-Go™ reagent per well. Plates were incubated for 40 minutes at room temperature, followed by addition of 50 μl kinase detection reagent per well and incubation for 60 minutes at room temperature. Signal was determined with a microplate luminescence reader (Victor, Perkin Elmer). The assay was either performed using a single dose of compound (1 μM final concentration in the assay reaction) with resulting data expressed as residual activity compared to control (DMSO), or using a serial (half-log) dilution of compounds starting at 10 μM and down to 0.3 nM (final concentrations in the assay) with data expressed as the pIC50.
# as §1
# EF2K [3] = molecular target: T1, EF2K; assay: EF2K cell-based assay (P-EF2 AlphaLISA, 2-deoxyglucose stimulated MCF10A cells); conditions: 2.5 mM 2-deoxyglucose stimulated, P-EF2 Thr56, pIC50 = -log IC50 (M), read-out: eEF2K_C_PThr56 pIC50 (converted)
# Protocol: In this assay, 2.5 mM 2-deoxyglucose was used to deplete intracellular ATP and activate 5′ adenosine monophosphate-activated protein kinase (AMPK) in the immortalized epithelial breast cell lines, MCF10A. MCF 10A cells were purchased from ATCC (CRL-10317).
# MCF10A cells are seeded at a density of 1.25×10^5 Cells/ml at 100 μl/well in a 96-well plate and incubated for 24 hours (37° C., 5% CO2). Compound is added for 1 hour, and cell are stimulated with 2.5 mM of 2-deoxy-glucose for 4 hours. Medium is then removed, and cells are lysed in an ice-cold buffer M-PER (Thermo Scientific, 78501), containing protease and phosphatase inhibitors. P-EF2 levels are determined in these lysates using the P-EF2 AlphaLISA described above.
# as §1
# [4] = single dose 1 μM compound, residual activity compared to control (DMSO)
# Vps34 (PIK3C3 lipid kinase), sequence (Q8NEB9 whole entry, species assumed): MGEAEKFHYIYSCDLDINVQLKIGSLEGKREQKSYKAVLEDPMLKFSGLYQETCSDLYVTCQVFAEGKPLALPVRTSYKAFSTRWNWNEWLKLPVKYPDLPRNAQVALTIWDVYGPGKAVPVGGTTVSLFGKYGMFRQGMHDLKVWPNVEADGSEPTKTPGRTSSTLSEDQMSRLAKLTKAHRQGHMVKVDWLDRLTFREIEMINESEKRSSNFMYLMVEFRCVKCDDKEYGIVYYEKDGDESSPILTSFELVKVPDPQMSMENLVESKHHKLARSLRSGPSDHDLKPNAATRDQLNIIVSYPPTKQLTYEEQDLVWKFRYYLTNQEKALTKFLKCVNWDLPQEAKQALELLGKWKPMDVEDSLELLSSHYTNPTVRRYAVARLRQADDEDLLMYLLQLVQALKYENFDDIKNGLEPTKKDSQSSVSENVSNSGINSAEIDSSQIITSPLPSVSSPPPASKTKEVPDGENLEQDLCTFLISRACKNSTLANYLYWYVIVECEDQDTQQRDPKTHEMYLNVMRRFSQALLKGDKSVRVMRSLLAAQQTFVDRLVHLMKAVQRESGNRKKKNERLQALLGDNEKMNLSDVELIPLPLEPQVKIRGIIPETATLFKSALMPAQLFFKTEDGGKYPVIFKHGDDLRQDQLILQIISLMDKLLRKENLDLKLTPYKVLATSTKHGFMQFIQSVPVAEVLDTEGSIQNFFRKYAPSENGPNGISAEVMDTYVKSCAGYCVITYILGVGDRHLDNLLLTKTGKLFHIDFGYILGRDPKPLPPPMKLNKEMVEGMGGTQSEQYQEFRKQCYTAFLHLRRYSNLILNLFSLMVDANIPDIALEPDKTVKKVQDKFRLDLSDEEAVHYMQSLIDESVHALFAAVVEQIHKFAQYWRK
IC50 (EF2K [1]),IC50 [2],IC50 (EF2K [3]),"remaining activity at 1 µM [2, 4]","VPS34_1microM_% of cntrl [2, 4]",Compound
7.59e-08 M,1.55e-06 M,2.95e-06 M,,,CN1CCCN(C)c2ccc(cn2)-c2ccnc(n2)Nc2cccc(c2)CN2CCN(CC2)CC1=O [Compound 1]
6.31e-08 M,1e-07 M,5.75e-06 M,4.44%,,O=C1CN2CCN(CC2)Cc2cc(ccc2F)Nc2nccc(n2)-c2ccc(nc2)NCCCN1 [Compound 2]
1.66e-06 M,6.76e-08 M,> 3.02e-05 M,4.43%,,O=C1CN2CCN(CC2)Cc2ccc(F)c(c2)Nc2nccc(n2)-c2ccc(nc2)NCCCN1 [Compound 3]
8.32e-08 M,4.79e-07 M,8.71e-06 M,29.3%,,O=C1CN2CCN(CC2)Cc2cccc(c2F)Nc2nccc(n2)-c2ccc(nc2)NCCCN1 [Compound 4]
7.59e-07 M,6.92e-08 M,2.51e-05 M,7.3%,,O=C1CN2CCN(CC2)Cc2cc(F)cc(c2)Nc2nccc(n2)-c2ccc(nc2)NCCCN1 [Compound 5]
6.61e-07 M,2.51e-07 M,2.45e-05 M,17.4%,,CN1CCCN(C)c2ccc(cn2)-c2ccnc(n2)Nc2cc(F)cc(c2)CN2CCN(CC2)CC1=O [Compound 6]
1.38e-05 M,1.58e-07 M,> 3.02e-05 M,15.1%,,Cc1cc2cc(c1)Nc1nccc(n1)-c1ccc(nc1)NCCCNC(=O)CN1CCN(CC1)C2 [Compound 7]
1.41e-05 M,,> 3.02e-05 M,41.1%,,Cc1cc2cc(c1)Nc1nccc(n1)-c1ccc(nc1)N(C)CCCN(C)C(=O)CN1CCN(CC1)C2 [Compound 8]
~6.03e-06 M,9.77e-08 M,> 3.02e-05 M,8.43%,,O=C1CN2CCN(CC2)Cc2cc(Cl)cc(c2)Nc2nccc(n2)-c2ccc(nc2)NCCCN1 [Compound 9]
3.63e-07 M,2.88e-07 M,1.29e-05 M,10.8%,,CN1CCCN(C)c2ccc(cn2)-c2ccnc(n2)Nc2ccc(C(N)=O)c(c2)CN2CCN(CC2)CC1=O [Compound 10]
4.57e-07 M,,> 3.02e-05 M,33.3%,,CN1CCCN(C)c2ccc(cn2)-c2ccnc(n2)Nc2ccc(C(=O)O)c(c2)CN2CCN(CC2)CC1=O [Compound 11]
2.09e-07 M,4.37e-07 M,1.05e-05 M,7.68%,,CNC(=O)c1ccc2cc1CN1CCN(CC1)CC(=O)N(C)CCCN(C)c1ccc(cn1)-c1ccnc(n1)N2 [Compound 12]
3.98e-07 M,8.71e-08 M,6.76e-06 M,9%,,CNC(=O)c1ccc2cc1CN1CCN(CC1)CC(=O)NCCCNc1ccc(cn1)-c1ccnc(n1)N2 [Compound 13]
7.08e-08 M,1.05e-07 M,7.59e-06 M,3.37%,,N#Cc1ccc2cc1CN1CCN(CC1)CC(=O)NCCCNc1ccc(cn1)-c1ccnc(n1)N2 [Compound 14]
6.03e-07 M,5.01e-08 M,2.75e-05 M,1.07%,,NC(=O)c1ccc2cc1CN1CCN(CC1)CC(=O)NCCCNc1ccc(cn1)-c1ccnc(n1)N2 [Compound 15]
2.04e-06 M,3.63e-07 M,> 3.02e-05 M,15.9%,,O=C1CN2CCN(CC2)Cc2cc(ccc2C(=O)O)Nc2nccc(n2)-c2ccc(nc2)NCCCN1 [Compound 16]
1.1e-06 M,,> 3.02e-05 M,39.5%,,CN(C)C(=O)c1ccc2cc1CN1CCN(CC1)CC(=O)N(C)CCCN(C)c1ccc(cn1)-c1ccnc(n1)N2 [Compound 17]
1.91e-06 M,9.12e-07 M,> 3.02e-05 M,23.4%,,CN(C)C(=O)c1ccc2cc1CN1CCN(CC1)CC(=O)NCCCNc1ccc(cn1)-c1ccnc(n1)N2 [Compound 18]
~1.58e-06 M,,> 3.02e-05 M,87.1%,,Cc1c2cccc1Nc1nccc(n1)-c1ccc(nc1)NCCCNC(=O)CN1CCN(CC1)C2 [Compound 19]
1.82e-06 M,1.62e-07 M,> 3.02e-05 M,8.85%,,CN1CCCCN(C)c2ccc(cn2)-c2ccnc(n2)Nc2cccc(c2)CN2CCN(CC2)CC1=O [Compound 20]
1.1e-06 M,5.01e-07 M,8.71e-06 M,23.6%,,CC(C)N1CCNc2ccc(cn2)-c2ccnc(n2)Nc2cccc(c2)CN2CCN(CC2)CC1=O [Compound 21]
7.24e-06 M,6.17e-06 M,> 3.02e-05 M,17.3%,,CC(C)N1CCCNc2ccc(cn2)-c2ccnc(n2)Nc2cccc(c2)CN2CCN(CC2)CC1=O [Compound 22]
5.01e-07 M,1.51e-07 M,2.24e-05 M,7.45%,,O=C1CN2CCN(CC2)Cc2cccc(c2)Nc2nccc(n2)-c2ccc(nc2)NCC(O)CN1 (stereo not drawn) [Compound 23]
1.48e-05 M,1.02e-07 M,> 3.02e-05 M,,5.23 % of cntrl,O=C1CN2CCN(CC2)Cc2cccc(c2)Nc2nccc(n2)-c2ccc(nc2)N2CCCC2CN1 (stereo not drawn) [Compound 26]
2.95e-06 M,,> 3.02e-05 M,50.7%,,CN1CCCN(C)c2ccc(cn2)-c2ccnc(n2)Nc2cccc(c2)S(=O)(=O)N2CCN(CC2)CC1=O [Compound 27]
~5.5e-08 M,,> 3.02e-05 M,45.6%,,CN1CCCN(C)c2ccc(cn2)-c2ccnc(n2)Nc2cccc(c2)C(=O)N2CCN(CC2)CC1=O [Compound 28]
1.74e-05 M,2e-07 M,> 3.02e-05 M,5.67%,,CN1CCCN(C)c2ccc(cn2)-c2ccnc(n2)Nc2cccc(c2)CCN2CCN(CC2)CC1=O [Compound 29]
1.07e-07 M,8.71e-08 M,~3.98e-06 M,8.47%,,O=C1CN2CCN(CC2)Cc2cccc(c2)Nc2nccc(n2)-c2ccc(nc2)NCCCN1 [Compound 31]
